Assays:
Meprin A subunit beta = target: T1, Meprin A subunit beta (Homo sapiens, UniProt Q16820)
T1 sequence (Q16820 whole entry): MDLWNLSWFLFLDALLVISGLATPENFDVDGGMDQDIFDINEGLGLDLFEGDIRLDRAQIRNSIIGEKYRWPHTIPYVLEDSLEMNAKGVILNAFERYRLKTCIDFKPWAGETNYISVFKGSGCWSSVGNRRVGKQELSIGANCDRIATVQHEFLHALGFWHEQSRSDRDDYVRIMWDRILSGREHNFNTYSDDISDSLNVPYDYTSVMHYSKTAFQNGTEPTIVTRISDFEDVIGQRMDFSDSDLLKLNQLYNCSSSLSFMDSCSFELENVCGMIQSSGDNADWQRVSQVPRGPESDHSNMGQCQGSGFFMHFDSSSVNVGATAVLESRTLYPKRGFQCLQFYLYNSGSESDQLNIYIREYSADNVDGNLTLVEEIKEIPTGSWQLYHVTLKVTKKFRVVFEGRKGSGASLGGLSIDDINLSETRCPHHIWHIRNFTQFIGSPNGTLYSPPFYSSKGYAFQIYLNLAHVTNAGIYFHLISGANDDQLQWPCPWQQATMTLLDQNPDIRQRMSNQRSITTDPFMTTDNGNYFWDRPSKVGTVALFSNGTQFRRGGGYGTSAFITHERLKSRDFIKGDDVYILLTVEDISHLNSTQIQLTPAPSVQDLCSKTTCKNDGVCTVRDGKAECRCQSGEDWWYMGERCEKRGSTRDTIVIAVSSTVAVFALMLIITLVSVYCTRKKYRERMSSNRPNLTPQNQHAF
Description: Inhibition of recombinant human meprin beta expressed in yeast using Abz-YVAEAPK(Dnp)G-OH as substrate by fluorescence assay

MMP2 = MMP2 (Homo sapiens, UniProt P08253); assay: Inhibition of human MMP2 assessed as residual activity using Mca-PLGL-(DapDnp)-AR-NH2 as substrate at 200 uM by fluorescence assay relative to control; details: human MMP2 enzyme, probe Mca-PLGL-(DapDnp)-AR-NH2, read-out: Activity
Sequence of MMP2 (P08253 whole entry): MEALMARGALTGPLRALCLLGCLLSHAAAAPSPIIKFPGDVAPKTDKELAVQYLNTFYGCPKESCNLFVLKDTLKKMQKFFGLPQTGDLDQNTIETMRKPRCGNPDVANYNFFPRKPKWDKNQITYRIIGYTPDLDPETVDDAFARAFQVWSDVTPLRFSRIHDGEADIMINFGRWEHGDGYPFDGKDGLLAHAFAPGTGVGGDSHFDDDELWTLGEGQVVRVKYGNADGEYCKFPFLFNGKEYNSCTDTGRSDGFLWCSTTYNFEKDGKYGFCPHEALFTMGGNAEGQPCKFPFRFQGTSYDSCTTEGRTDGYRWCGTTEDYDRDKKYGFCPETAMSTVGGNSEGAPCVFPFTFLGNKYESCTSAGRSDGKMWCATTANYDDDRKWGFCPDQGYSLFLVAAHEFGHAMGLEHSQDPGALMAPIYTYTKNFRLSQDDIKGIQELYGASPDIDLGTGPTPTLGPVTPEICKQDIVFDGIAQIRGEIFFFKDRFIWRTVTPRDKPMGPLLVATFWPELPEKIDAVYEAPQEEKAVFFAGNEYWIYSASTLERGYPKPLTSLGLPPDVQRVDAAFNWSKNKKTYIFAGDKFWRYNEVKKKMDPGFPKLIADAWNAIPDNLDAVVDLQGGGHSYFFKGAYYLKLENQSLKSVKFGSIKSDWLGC

MMP9 = MMP9 (Homo sapiens, UniProt P14780); assay: Inhibition of human MMP9 assessed as residual activity using Mca-PLGL-(DapDnp)-AR-NH2 as substrate at 200 uM by fluorescence assay relative to control; details: human MMP9 enzyme, probe Mca-PLGL-(DapDnp)-AR-NH2, read-out: Activity
Sequence of MMP9 (P14780 whole entry): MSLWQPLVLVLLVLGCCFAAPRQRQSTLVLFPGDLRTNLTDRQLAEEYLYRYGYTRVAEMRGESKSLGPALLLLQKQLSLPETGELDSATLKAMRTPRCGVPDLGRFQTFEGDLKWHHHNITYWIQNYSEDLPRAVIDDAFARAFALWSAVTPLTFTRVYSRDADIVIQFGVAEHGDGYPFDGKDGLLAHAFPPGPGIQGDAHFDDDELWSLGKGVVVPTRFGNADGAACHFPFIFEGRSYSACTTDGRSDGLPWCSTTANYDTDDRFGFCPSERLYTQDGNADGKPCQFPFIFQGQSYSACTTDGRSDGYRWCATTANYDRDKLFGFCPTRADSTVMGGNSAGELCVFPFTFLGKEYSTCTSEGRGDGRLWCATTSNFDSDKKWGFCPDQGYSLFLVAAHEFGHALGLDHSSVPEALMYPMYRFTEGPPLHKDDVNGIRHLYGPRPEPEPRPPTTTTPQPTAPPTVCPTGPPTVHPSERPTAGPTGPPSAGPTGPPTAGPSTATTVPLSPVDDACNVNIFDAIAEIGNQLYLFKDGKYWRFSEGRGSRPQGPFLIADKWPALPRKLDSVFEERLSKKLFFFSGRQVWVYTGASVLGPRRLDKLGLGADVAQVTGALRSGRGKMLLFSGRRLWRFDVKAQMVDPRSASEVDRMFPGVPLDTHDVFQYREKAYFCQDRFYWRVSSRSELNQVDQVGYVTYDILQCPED

MMP13 = MMP13 (Homo sapiens, UniProt P45452); assay: Inhibition of human MMP13 assessed as residual activity using Mca-PLGL-(DapDnp)-AR-NH2 as substrate at 200 uM by fluorescence assay relative to control; details: human MMP13 enzyme, probe Mca-PLGL-(DapDnp)-AR-NH2, read-out: Activity
ADAM10 = target: T2, ADAM10 (Homo sapiens, UniProt O14672); assay: Inhibition of human ADAM10 assessed as residual activity using Abz-LANAVRSSSR-(DapDnp)-AR-NH2 as substrate at 200 uM by fluorescence assay relative to control; details: human ADAM10 enzyme, probe Abz-LANAVRSSSR-(DapDnp)-AR-NH2, read-out: Activity
T2 sequence (O14672 whole entry): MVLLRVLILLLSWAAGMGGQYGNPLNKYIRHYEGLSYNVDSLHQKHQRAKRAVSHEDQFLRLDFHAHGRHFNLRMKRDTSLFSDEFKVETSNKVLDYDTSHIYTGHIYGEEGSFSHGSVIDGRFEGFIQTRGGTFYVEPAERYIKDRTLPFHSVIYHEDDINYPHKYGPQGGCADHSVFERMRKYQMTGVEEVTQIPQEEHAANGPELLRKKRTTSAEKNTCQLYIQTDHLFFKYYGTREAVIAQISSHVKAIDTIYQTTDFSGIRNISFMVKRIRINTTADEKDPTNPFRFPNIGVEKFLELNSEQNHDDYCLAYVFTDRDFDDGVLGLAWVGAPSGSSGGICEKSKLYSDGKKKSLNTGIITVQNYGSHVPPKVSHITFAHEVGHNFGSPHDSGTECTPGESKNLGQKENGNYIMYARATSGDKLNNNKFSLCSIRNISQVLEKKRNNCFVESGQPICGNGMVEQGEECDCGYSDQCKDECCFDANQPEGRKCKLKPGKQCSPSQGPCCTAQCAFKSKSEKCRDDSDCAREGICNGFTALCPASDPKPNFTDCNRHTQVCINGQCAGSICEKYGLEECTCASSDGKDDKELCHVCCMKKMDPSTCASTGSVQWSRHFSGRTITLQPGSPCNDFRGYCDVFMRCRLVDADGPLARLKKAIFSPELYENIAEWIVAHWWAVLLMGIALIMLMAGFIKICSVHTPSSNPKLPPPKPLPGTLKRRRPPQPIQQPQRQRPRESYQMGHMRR

ADAM17 = ADAM17 (Homo sapiens, UniProt P78536); assay: Inhibition of human ADAM17 assessed as residual activity using Abz-LANAVRSSSR-(DapDnp)-AR-NH2 as substrate at 200 uM by fluorescence assay relative to control; details: human ADAM17 enzyme, probe Abz-LANAVRSSSR-(DapDnp)-AR-NH2, read-out: Activity
Sequence of ADAM17 (P78536 whole entry): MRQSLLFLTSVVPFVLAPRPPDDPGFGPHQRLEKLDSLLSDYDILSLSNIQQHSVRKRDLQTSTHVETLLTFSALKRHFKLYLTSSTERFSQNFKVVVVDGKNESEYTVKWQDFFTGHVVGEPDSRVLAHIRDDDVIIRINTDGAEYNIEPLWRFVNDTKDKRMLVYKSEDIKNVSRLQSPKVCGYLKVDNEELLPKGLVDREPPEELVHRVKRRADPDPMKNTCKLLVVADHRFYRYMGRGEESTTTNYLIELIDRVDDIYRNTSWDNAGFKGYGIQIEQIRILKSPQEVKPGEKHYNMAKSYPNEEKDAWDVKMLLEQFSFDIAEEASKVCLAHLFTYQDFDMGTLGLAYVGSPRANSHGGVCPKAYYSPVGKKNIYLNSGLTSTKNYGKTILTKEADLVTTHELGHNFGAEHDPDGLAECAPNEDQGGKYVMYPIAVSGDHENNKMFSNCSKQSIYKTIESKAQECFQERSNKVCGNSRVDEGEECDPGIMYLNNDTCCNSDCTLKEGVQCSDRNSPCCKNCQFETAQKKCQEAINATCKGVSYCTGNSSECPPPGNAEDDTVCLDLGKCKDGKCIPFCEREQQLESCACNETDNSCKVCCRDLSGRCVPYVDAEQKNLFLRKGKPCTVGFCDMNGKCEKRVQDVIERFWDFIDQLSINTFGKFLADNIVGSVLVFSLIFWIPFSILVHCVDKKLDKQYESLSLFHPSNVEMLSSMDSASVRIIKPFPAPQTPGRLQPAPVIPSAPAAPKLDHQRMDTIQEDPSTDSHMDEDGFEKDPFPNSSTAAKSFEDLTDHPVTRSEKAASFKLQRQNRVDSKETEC

CYP3A4 = CYP3A4 (Homo sapiens, UniProt P08684); assay: Inhibition of recombinant human CYP3A4 expressed in baculosomes assessed as residual activity at 25 uM using BOMCC substrate by fluorescence assay relative to control; assay type: ADME; details: probe BOMCC, read-out: Activity
Sequence of CYP3A4 (P08684 whole entry): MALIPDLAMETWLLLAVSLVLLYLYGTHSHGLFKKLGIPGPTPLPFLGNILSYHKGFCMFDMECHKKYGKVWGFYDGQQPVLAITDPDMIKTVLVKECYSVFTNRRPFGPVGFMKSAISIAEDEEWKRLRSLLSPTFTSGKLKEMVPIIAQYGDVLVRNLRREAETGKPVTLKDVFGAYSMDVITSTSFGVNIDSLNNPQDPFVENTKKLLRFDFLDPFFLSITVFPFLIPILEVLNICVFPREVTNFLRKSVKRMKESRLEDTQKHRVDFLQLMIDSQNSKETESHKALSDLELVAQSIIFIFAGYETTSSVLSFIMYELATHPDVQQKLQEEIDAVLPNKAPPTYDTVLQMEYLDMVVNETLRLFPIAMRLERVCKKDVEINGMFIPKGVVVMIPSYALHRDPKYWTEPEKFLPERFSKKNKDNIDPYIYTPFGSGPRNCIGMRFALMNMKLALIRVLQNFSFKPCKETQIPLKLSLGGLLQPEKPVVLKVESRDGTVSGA

CYP2C9 = CYP2C9 (Homo sapiens, UniProt P11712); assay: Inhibition of recombinant human CYP2C9 expressed in baculosomes assessed as residual activity at 25 uM using BOMCC substrate by fluorescence assay relative to control; assay type: ADME; details: probe BOMCC, read-out: Activity
Sequence of CYP2C9 (P11712 whole entry): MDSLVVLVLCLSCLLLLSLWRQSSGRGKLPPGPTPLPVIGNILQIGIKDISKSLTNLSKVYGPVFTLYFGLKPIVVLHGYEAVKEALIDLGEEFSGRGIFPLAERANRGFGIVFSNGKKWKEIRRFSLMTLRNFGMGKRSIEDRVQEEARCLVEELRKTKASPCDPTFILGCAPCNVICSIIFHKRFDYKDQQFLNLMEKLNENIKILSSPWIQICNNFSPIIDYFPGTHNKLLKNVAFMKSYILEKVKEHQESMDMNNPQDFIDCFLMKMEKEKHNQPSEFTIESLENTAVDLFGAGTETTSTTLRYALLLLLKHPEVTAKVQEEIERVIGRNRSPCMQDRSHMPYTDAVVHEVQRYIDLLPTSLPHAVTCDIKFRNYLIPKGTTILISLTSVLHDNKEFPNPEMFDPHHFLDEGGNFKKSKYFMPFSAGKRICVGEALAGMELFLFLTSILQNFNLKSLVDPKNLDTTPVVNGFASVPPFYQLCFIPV

SH-SY5Y [1] = assay: Cytotoxicity in human SH-SY5Y cells assessed as cell viability at 100 uM after 24 hrs by CytoTox-ONE-based assay relative to control; assay type: functional; details: read-out: Activity
HepG2 [2] = assay: Cytotoxicity in human HepG2 cells assessed as cell viability at 100 uM after 24 hrs by CytoTox-ONE-based assay relative to control; assay type: functional; details: HepG2, 24 h, read-out: Activity
Homo sapiens = organism: Homo sapiens; assay: Selectivity ratio of IC50 for recombinant human meprin alpha expressed in insect cells to IC50 for recombinant human meprin beta expressed in yeast
BMP1 = target: T3, BMP1 (Homo sapiens, UniProt P13497); assay: Inhibition of human BMP1 expressed in Escherichia coli assessed as residual activity using Abz-YVADAPK(Dnp)G-OH as substrate at 200 uM by fluorescence assay relative to control; details: probe Abz-YVADAPK(Dnp)G-OH, read-out: Activity
T3 sequence (P13497 whole entry): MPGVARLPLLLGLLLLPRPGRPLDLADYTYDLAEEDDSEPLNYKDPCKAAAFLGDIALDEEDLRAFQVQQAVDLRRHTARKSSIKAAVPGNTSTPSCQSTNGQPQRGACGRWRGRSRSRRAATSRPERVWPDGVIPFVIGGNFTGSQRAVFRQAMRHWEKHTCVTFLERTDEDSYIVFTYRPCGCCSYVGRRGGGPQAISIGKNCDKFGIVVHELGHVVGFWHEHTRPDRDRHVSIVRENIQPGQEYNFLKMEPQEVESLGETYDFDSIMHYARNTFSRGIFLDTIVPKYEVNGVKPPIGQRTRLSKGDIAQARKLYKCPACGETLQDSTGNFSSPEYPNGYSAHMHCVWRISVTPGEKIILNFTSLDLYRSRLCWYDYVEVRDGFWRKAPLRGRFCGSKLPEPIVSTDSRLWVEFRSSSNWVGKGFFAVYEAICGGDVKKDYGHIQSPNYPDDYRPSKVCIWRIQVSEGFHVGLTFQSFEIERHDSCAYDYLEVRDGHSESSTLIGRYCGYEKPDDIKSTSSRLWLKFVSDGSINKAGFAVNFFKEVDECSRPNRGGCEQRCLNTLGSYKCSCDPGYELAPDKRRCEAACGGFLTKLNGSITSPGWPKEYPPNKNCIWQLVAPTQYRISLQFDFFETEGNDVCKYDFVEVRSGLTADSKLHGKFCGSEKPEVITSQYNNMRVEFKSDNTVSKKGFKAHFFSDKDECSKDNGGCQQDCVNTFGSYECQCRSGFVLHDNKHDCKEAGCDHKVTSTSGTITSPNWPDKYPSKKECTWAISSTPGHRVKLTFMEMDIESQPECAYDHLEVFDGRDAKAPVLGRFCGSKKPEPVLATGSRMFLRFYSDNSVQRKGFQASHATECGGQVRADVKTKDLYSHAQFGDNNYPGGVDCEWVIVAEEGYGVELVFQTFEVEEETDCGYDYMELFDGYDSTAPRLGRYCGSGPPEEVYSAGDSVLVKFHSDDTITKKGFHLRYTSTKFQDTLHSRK

[3] = Drug absorption in Sprague-Dawley rat at 10 mg/kg, po by LC-MS analysis; assay type: ADME, organism-based; details: in vivo, read-out: Fabs
[4] = Cmax in Sprague-Dawley rat at 10 mg/kg, po by LC-MS analysis; assay type: ADME, organism-based; parameters: dose 10 mg/kg, route oral; details: in vivo
[5] = Tmax in Sprague-Dawley rat at 10 mg/kg, po by LC-MS analysis; assay type: ADME, organism-based; details: in vivo
Rattus norvegicus = assay: Volume of distribution in Sprague-Dawley rat at 10 mg/kg, po by LC-MS analysis; assay type: ADME, organism-based; details: in vivo
[6] = Drug absorption in Sprague-Dawley rat at 10 mg/kg, ip by LC-MS analysis; assay type: ADME, organism-based; details: in vivo, read-out: Fabs
[7] = Cmax in Sprague-Dawley rat at 10 mg/kg, ip by LC-MS analysis; assay type: ADME, organism-based; parameters: dose 10 mg/kg, route intraperitoneal; details: in vivo
[8] = Tmax in Sprague-Dawley rat at 10 mg/kg, ip by LC-MS analysis; assay type: ADME, organism-based; details: in vivo
[9] = Half life in Sprague-Dawley rat at 6 mg/kg, iv by LC-MS analysis; assay type: ADME, organism-based; details: in vivo
[10] = Clearance in Sprague-Dawley rat at 6 mg/kg, iv by LC-MS analysis; assay type: ADME, organism-based; details: in vivo
[11] = Volume of distribution at steady state in Sprague-Dawley rat at 6 mg/kg, iv by LC-MS analysis; assay type: ADME, organism-based; details: in vivo, read-out: Vdss
SH-SY5Y [12] = assay: Cytotoxicity in human SH-SY5Y cells assessed as cell viability at 30 uM after 24 hrs by CytoTox-ONE-based assay relative to control; assay type: functional; details: read-out: Activity
HepG2 [13] = assay: Cytotoxicity in human HepG2 cells assessed as cell viability at 30 uM after 24 hrs by CytoTox-ONE-based assay relative to control; assay type: functional; details: HepG2, 24 h, read-out: Activity

IC50 (Meprin A subunit beta) | Structure (SMILES) | activity at 200 µM (MMP2) | activity at 200 µM (MMP9) | activity at 200 µM (MMP13) | activity at 200 µM (ADAM10) | activity at 200 µM (ADAM17) | activity at 25 µM (CYP3A4) | activity at 25 µM (CYP2C9) | further results
2250 nM | CCCOc1cccc(CN(CC(=O)NO)Cc2cccc(C(=O)O)c2)c1 |  |  |  |  |  |  |  | 
386 nM | Cc1ccc(CN(CC(=O)NO)Cc2cccc(C(=O)O)c2)cc1 |  |  |  |  |  |  |  | 
347 nM | COc1cc(F)c(CN(CC(=O)NO)Cc2cccc(C(=O)O)c2)c(F)c1 |  |  |  |  |  |  |  | 
1280 nM | O=C(CN(Cc1ccc(-c2ccccc2)cc1)Cc1cccc(C(=O)O)c1)NO |  |  |  |  |  |  |  | 
524 nM | O=C(CN(Cc1ccc(C(=O)O)cc1)Cc1ccc(C(=O)O)cc1)NO |  |  |  |  |  |  |  | 

More lines, now with the values behind:

Structure (SMILES) | IC50 (Meprin A subunit beta) | activity at 200 µM (MMP2) | activity at 200 µM (MMP9) | activity at 200 µM (MMP13) | activity at 200 µM (ADAM10) | activity at 200 µM (ADAM17) | activity at 25 µM (CYP3A4) | activity at 25 µM (CYP2C9) | further results
COc1ccc(CN(CC(=O)NO)Cc2cccc(C(=O)O)c2)cc1F | 375 nM |  |  |  |  |  |  |  | 
COc1c(Cl)ccc(CN(CC(=O)NO)Cc2ccc(Cl)c(OC)c2F)c1F | 12800 nM |  |  |  |  |  |  |  | 
COc1ccc(CN(CC(=O)NO)Cc2cccc(C(=O)O)c2)cc1 | 77 nM | 68% | 85% | 94% | 87% | 60% | 80% | 102% | viability at 100 µM (SH-SY5Y [1]): 87%; viability at 100 µM (HepG2 [2]): 100%; Ratio IC50 (Homo sapiens): 40
COc1ccc(S(=O)(=O)N(CC(=O)NO)Cc2cccc(C(=O)O)c2)cc1 |  | < 1% | 2% | < 1% | < 1% | < 1% |  |  | 
O=C(CN(Cc1ccc(Cl)c(O)c1F)Cc1ccc(Cl)c(O)c1F)NO |  | 41% | 81% | 93% | 97% | 82% | 76% | 68% | activity at 200 µM (BMP1): 50%; Fa [3]: 9%; Cmax [4]: 810 ng/mL; Tmax [5]: 15 min; Vd (Rattus norvegicus): 0.058 L; Fa [6]: 84%; Cmax [7]: 10900 ng/mL; Tmax [8]: 10.2 min; half-life [9]: 114 min; clearance [10]: 21 mL/min/kg; Vd [11]: 0.33 L/kg; viability at 30 µM (SH-SY5Y [12]): 93%; viability at 30 µM (HepG2 [13]): 101%
O=C(CN(Cc1ccc(Cl)cc1)Cc1cccc(C(=O)O)c1)NO |  | 69% | 88% | 78% | 95% | 57% | 79% | 77% | viability at 30 µM (SH-SY5Y [12]): 97%; viability at 30 µM (HepG2 [13]): 104%
O=C(CN(Cc1ccc(F)c(O)c1F)Cc1ccc(F)c(O)c1F)NO |  | 67% | 94% | 102% | 99% | 92% | 87% | 101% | activity at 200 µM (BMP1): 34%; Fa [3]: 5%; Cmax [4]: 1080 ng/mL; Tmax [5]: 7.8 min; Vd (Rattus norvegicus): 0.045 L; half-life [9]: 66 min; clearance [10]: 21.8 mL/min/kg; Vd [11]: 0.41 L/kg; viability at 30 µM (SH-SY5Y [12]): 92%; viability at 30 µM (HepG2 [13]): 99%

Source: ChEMBL document CHEMBL4184323, “Structure-Guided Design, Synthesis, and Characterization of Next-Generation Meprin β Inhibitors” (J Med Chem, 2018)
